For this data set, the system named is CCRIS mutagenicity, Ames/micronucleus/aberration tests. Briefly: CCRIS mutagenicity studies.
Setting [1] is: Test System: AMES SALMONELLA TYPHIMURIUM, Strain/Indicator: TA100, Metabolic Activation: NONE, Method: STANDARD PLATE.
Where [2] appears, read: Test System: AMES SALMONELLA TYPHIMURIUM, Strain/Indicator: TA100, Metabolic Activation: RAT, LIVER, S-9, AROCLOR 1254, Method: PREINCUBATION
[3] abbreviates: Test System: AMES SALMONELLA TYPHIMURIUM, Strain/Indicator: TA98, Metabolic Activation: NONE, Method: STANDARD PLATE.
[4] abbreviates: Test System: AMES SALMONELLA TYPHIMURIUM, Strain/Indicator: TA98, Metabolic Activation: RAT, LIVER, S-9, AROCLOR 1254, Method: STANDARD PLATE.
[5] abbreviates: Test System: AMES SALMONELLA TYPHIMURIUM, Strain/Indicator: TA100, Metabolic Activation: RAT, LIVER, S-9, AROCLOR 1254, Method: STANDARD PLATE.
Where [6] appears, read: Test System: AMES SALMONELLA TYPHIMURIUM, Strain/Indicator: TA1535, Metabolic Activation: NONE, Method: STANDARD PLATE.
The mark [7] stands for this setting: Test System: AMES SALMONELLA TYPHIMURIUM, Strain/Indicator: TA1535, Metabolic Activation: RAT, LIVER, S-9, AROCLOR 1254, Method: STANDARD PLATE.
Setting [8] is: Test System: AMES SALMONELLA TYPHIMURIUM, Strain/Indicator: TA1537, Metabolic Activation: NONE, Method: STANDARD PLATE.
[9] abbreviates: Test System: AMES SALMONELLA TYPHIMURIUM, Strain/Indicator: TA1537, Metabolic Activation: RAT, LIVER, S-9, AROCLOR 1254, Method: STANDARD PLATE.

Structures are written as SMILES. Calls of active or inactive are those of the source. The rule behind the calls is not given here.

In the case of `CCCN(CCC)N=O`, the mutagenic call reads like this: (Test System: AMES SALMONELLA TYPHIMURIUM, Strain/Indicator: TA100, Metabolic Activation: HAMSTER, LIVER, S-9, Method: PREINCUBATION) “active; positive”; (Test System: AMES SALMONELLA TYPHIMURIUM, Strain/Indicator: TA100, Metabolic Activation: HUMAN, LIVER, S-9, Method: PREINCUBATION) “inactive; negative”; (Test System: AMES SALMONELLA TYPHIMURIUM, Strain/Indicator: TA100, Metabolic Activation: MOUSE, INTACT UROTHELIAL CELLS, Method: FLUCTUATION TEST) “active; positive”; under setting [1], “inactive; negative”; (Test System: AMES SALMONELLA TYPHIMURIUM, Strain/Indicator: TA100, Metabolic Activation: PIG, LIVER, S-9, Method: PREINCUBATION) “inactive; negative”; (Test System: AMES SALMONELLA TYPHIMURIUM, Strain/Indicator: TA100, Metabolic Activation: RABBIT, LIVER, S-9, Method: STANDARD PLATE) “inactive; negative”. Moreover, the mutagenic call was “inactive; negative” (Test System: AMES SALMONELLA TYPHIMURIUM, Strain/Indicator: TA100, Metabolic Activation: RABBIT, LUNG, S-9, Method: STANDARD PLATE); “inactive; negative” (Test System: AMES SALMONELLA TYPHIMURIUM, Strain/Indicator: TA100, Metabolic Activation: RABBIT, NASAL, S-9, Method: STANDARD PLATE); “active; positive” (Test System: AMES SALMONELLA TYPHIMURIUM, Strain/Indicator: TA100, Metabolic Activation: RAT, INTACT UROTHELIAL CELLS, Method: FLUCTUATION TEST); “active; positive” under setting [2]; “active; positive” (Test System: AMES SALMONELLA TYPHIMURIUM, Strain/Indicator: TA100, Metabolic Activation: RAT, LIVER, S-9, KC500 OR PHENOBARBITAL, Method: LIQUID SUSPENSION); “inactive; negative” (Test System: AMES SALMONELLA TYPHIMURIUM, Strain/Indicator: TA100, Metabolic Activation: RAT, LIVER, S-9, Method: PREINCUBATION). The mutagenic call runs as follows: (Test System: AMES SALMONELLA TYPHIMURIUM, Strain/Indicator: TA100, Metabolic Activation: RAT, LIVER, S-9, Method: STANDARD PLATE) “inactive; negative”; (Test System: AMES SALMONELLA TYPHIMURIUM, Strain/Indicator: TA100, Metabolic Activation: RAT, LUNG, S-9, Method: STANDARD PLATE) “inactive; negative”; (Test System: AMES SALMONELLA TYPHIMURIUM, Strain/Indicator: TA100, Metabolic Activation: RAT, NASAL, S-9, Method: STANDARD PLATE) “active; positive”; (Test System: AMES SALMONELLA TYPHIMURIUM, Strain/Indicator: TA102, Metabolic Activation: RAT, LIVER, S-9, AROCLOR 1254, Method: PREINCUBATION) “active; positive”; (Test System: AMES SALMONELLA TYPHIMURIUM, Strain/Indicator: TA104, Metabolic Activation: RAT, LIVER, S-9, AROCLOR 1254, Method: PREINCUBATION) “active; positive”; (Test System: AMES SALMONELLA TYPHIMURIUM, Strain/Indicator: TA1530, Metabolic Activation: RAT, LIVER, S-9, Method: STANDARD PLATE) “active; positive”. Moreover, the mutagenic call (Test System: AMES SALMONELLA TYPHIMURIUM, Strain/Indicator: TA1535, Metabolic Activation: RAT, LIVER, S-9, AROCLOR 1254, Method: PREINCUBATION) is “active; positive”; the mutagenic call (Test System: AMES SALMONELLA TYPHIMURIUM, Strain/Indicator: TA1535ER, Metabolic Activation: NONE, Method: STANDARD PLATE) is “inactive; negative”; the mutagenic call (Test System: AMES SALMONELLA TYPHIMURIUM, Strain/Indicator: TA1975, Metabolic Activation: RAT, LIVER, S-9, AROCLOR 1254, Method: PREINCUBATION) is “active; positive”; the mutagenic call (Test System: AMES SALMONELLA TYPHIMURIUM, Strain/Indicator: YG7104ER, Metabolic Activation: NONE, Method: STANDARD PLATE) was “active; positive”; the mutagenic call (Test System: AMES SALMONELLA TYPHIMURIUM, Strain/Indicator: YG7108ER, Metabolic Activation: NONE, Method: STANDARD PLATE) was “active; positive”; the mutagenic call (Test System: CHINESE HAMSTER V-79, Strain/Indicator: V-79/8-AZAGUANINE, Metabolic Activation: RAT, LIVER, S-15, PHENOBARBITAL, Method: STANDARD PLATE) was “active; positive”. Moreover, the mutagenic call (Test System: CHINESE HAMSTER V-79, Strain/Indicator: V-79/OUABAIN, Metabolic Activation: HAMSTER, HEPATOCYTES, Method: CELL-MEDIATED) is “active; positive”.
As to `O=[N+]([O-])c1cccc(NS(=O)(=O)c2cccc3cccnc23)c1`, the mutagenic call is “inactive; negative” under setting [3]; “inactive; negative” under setting [4]; “inactive; negative” under setting [1]; “inactive; negative” under setting [5]; “inactive; negative” under setting [6]; “inactive; negative” under setting [7]. Further, the mutagenic call is “inactive; negative” under setting [8] and “inactive; negative” under setting [9].
As to `Nc1ccc2c(c1)C(=O)c1ccc(N)cc1C2=O`, the mutagenic call is, setting by setting: under setting [3], “inactive; negative”; under setting [4], “active; positive”; under setting [1], “inactive; negative”; under setting [5], “inactive; negative”; under setting [6], “inactive; negative”; under setting [7], “inactive; negative”. In addition, the mutagenic call was “inactive; negative” under setting [8]; “active; positive” under setting [9]; “inactive; negative” (Test System: AMES SALMONELLA TYPHIMURIUM, Strain/Indicator: TA1538, Metabolic Activation: NONE, Method: STANDARD PLATE); “inactive; negative” (Test System: AMES SALMONELLA TYPHIMURIUM, Strain/Indicator: TA1978, Metabolic Activation: RAT, LIVER, S-9, AROCLOR 1254, Method: STANDARD PLATE).
Turning to `CCCC/C=C/C=C/C=C/C=C/C=C/OC[C@@H](O)CO`, the mutagenic call runs as follows: (Test System: AMES SALMONELLA TYPHIMURIUM, Strain/Indicator: TA100, Metabolic Activation: NONE, Method: PREINCUBATION) “active; positive”; under setting [2], “active; positive”.
As to `COc1nsc2cc([N+](=O)[O-])ccc12`, the mutagenic call under setting [3] was “active; positive”.
For the compound `Nc1nc2n[nH]nc2c(=O)[nH]1`, the mutagenic call is “inactive; negative” under setting [3]; “inactive; negative” (Test System: AMES SALMONELLA TYPHIMURIUM, Strain/Indicator: TA98, Metabolic Activation: S-9, Method: STANDARD PLATE); “inactive; negative” under setting [1]; “inactive; negative” (Test System: AMES SALMONELLA TYPHIMURIUM, Strain/Indicator: TA100, Metabolic Activation: S-9, Method: STANDARD PLATE); “inactive; negative” (Test System: AMES SALMONELLA TYPHIMURIUM, Strain/Indicator: TA102, Metabolic Activation: NONE, Method: STANDARD PLATE); “inactive; negative” under setting [8]. Moreover, the mutagenic call was “inactive; negative” (Test System: AMES SALMONELLA TYPHIMURIUM, Strain/Indicator: TA1537, Metabolic Activation: S-9, Method: STANDARD PLATE); “inactive; negative” (Test System: E. COLI, Strain/Indicator: WP2 (HCR), Metabolic Activation: NONE, Method: STANDARD PLATE); “inactive; negative” (Test System: E. COLI, Strain/Indicator: WP2 (HCR), Metabolic Activation: S-9, Method: STANDARD PLATE).

The values above are taken from PubChem BioAssay AID1259407 (Chemical Carcinogenesis Research Information System (CCRIS), 2018).
